# Test system: LTB4 biosynthesis
# Test: Calcium ionophore-induced LTB4 biosynthesis in human whole blood
# Type: cell-based
# Details: @ 100 nm; human heparinized whole blood, calcium ionophore A23187 challenge, LTB4 by radioimmunoassay
# Experimental: Inhibition of leukotriene biosynthesis was evaluated in an assay, involving calcium ionophore-induced LTB4 biosynthesis expressed human whole blood. Human heparinized whole blood was preincubated with test compounds or vehicle for 15 min at 37° C. followed by calcium ionophore A23 187 challenge (final concentration of 8.3 μM) and the reaction terminated after 30 min by adding two volumes of methanol containing prostaglandin B2 as an internal recovery standard. The methanol extract was analyzed for LTB4 using a commercially available radioimmunoassay.
smiles,measurement,value
"COC1(/C=C/COc2ccc3c(-c4ccc(F)cc4)c4c(cc3c2)C(=O)OC4)CCOCC1 [Example 1, 4-(4-fluorophenyl)-7-[3-(4-methoxytetrahydro-2H-pyran-4-yl)-2-propenyloxy]naptho[2,3-c]furan-1(3H)-one]",inhibition of leukotriene biosynthesis,55%

# — patent publication US5426111A, “[Alkoxy-, alkenyloxy-, alkynyloxy-, and phenylmethyloxyalkoxycycloalkyl or alkoxycycloheteroalkyl]naphtho[2,3-c]furan-1(3H)-one inhibitors of 5-lipoxygenase” (Abbott Laboratories, priority 1994, dated 1995)
